From patent US20090209536A1, “AMINOQUINAZOLINE CANNABINOID RECEPTOR MODULATORS FOR TREATMENT OF DISEASE” (KALYPSYS, INC., priority 2007, published 2009)
Read-outs that look alike come from different tables or passages of the source.

What was measured:
[1] = molecular target: T1, human cannabinoid receptor type 2 (Homo sapiens, UniProt P34972); test: Human CB2 Radioligand Binding Assay; conditions: membranes from stably transfected CHO CB2 cells
T1 construct: expressed in transfected cells; membrane preparation
T1 sequence (P34972 whole entry): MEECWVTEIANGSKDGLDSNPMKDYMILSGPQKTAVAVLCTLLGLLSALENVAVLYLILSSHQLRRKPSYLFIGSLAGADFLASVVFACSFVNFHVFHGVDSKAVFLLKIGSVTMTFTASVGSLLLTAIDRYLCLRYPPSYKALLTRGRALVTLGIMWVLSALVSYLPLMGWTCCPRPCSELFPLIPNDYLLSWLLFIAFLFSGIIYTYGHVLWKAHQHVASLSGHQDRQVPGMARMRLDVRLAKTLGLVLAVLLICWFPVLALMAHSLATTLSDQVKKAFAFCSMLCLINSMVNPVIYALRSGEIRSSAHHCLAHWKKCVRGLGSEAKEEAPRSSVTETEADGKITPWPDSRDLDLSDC
In short: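 Test compounds (10 uM final, or dose-response) competed with [3H]CP-55,940, used at the Kd determined per membrane lot, for binding to stable human CB2-CHO membranes over 90 min at 30° C in pH 7.4 Tris/EGTA/MgCl2/BSA buffer. GF/C filtration then scintillation counting; 100 nM CP-55,940 defined 100% efficacy.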

[2] = molecular target: T2, human cannabinoid receptor type 1 (Homo sapiens, UniProt P21554); test: Human CB1 Radioligand Binding Assay (basis of selectivity, CB2 vs. CB1); conditions: CB1: HEK 293 EBNA cells expressing human CB1; CB2: CHO CB2 membranes
T2 construct: purchased Perkin Elmer RBHCB1M; host or cells: HEK 293 EBNA cells
T2 sequence (P21554 whole entry): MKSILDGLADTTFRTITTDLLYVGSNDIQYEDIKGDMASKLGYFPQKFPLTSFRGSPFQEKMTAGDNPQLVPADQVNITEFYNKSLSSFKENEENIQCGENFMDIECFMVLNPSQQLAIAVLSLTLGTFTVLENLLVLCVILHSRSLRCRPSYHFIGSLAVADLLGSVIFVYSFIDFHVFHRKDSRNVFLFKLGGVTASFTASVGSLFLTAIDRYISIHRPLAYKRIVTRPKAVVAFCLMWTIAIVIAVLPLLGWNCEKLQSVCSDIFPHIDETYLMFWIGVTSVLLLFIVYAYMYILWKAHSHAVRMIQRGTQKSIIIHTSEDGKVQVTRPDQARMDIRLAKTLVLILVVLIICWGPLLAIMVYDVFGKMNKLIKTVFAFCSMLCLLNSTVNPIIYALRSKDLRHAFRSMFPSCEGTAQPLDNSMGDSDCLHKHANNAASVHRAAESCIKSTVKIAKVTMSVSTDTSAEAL
Method: 2. Human CB1 Radioligand Binding Assay
The incubation buffer was composed of 50 mM Tris-HCl pH 7.4, 2.5 mM EDTA, 5 mM MgCl2, 5.0 mg/ml fatty acid free BSA and the wash buffer was composed of 50 mM Tris-HCl pH 7.4, 2.5 mM EDTA, 5 mM MgCl2, 0.5 mg/ml fatty acid free BSA.

[3] = competition with [3H] CP-55,940, read-out: CB2 Ligand Binding Asssay EC50

Row | SMILES | EC50 [1, 3] [nM] | Selectivity, CB2 vs. CB1 [2] | EC50 ([1]; CB2 Ligand Binding Asssay EC50, competition with [3H] CP-55,940) [nM]
1 | CCN(CC)C(=O)c1ccc2nc(-c3ccccc3Cl)nc(N3CCN(C(C)=O)CC3)c2c1 [Example 316, 4-(4-Acetylpiperazin-1-yl)-2-(2-chlorophenyl)-N,N-diethylquinazoline-6-carboxamide] | < 1000 | + (+ indicates > 10−fold) | 
2 | CCOC(=O)N1CCN(c2nc(-c3ccccc3Cl)nc3cc(C(=O)OC)ccc23)CC1 [Example 317, Methyl 2-(2-chlorophenyl)-4-(4-(ethoxycarbonyl)piperazin-1-yl)quinazoline-7-carboxylate] | > 1000 | − (− indicates ≦ 10−fold) | 
3 | CCOC(=O)N1CCN(c2nc(-c3ccccc3Cl)nc3cc(C(=O)O)ccc23)CC1 [Example 318, 2-(2-Chlorophenyl)-4-(4-(ethoxycarbonyl)piperazin-1-yl)quinazoline-7-carboxylic acid] | > 1000 | − (− indicates ≦ 10−fold) | 
4 | CCOC(=O)N1CCN(c2nc(-c3ccccc3Cl)nc3cc(C(=O)NC(C)C)ccc23)CC1 [Example 320, Ethyl 4-(2-(2-chlorophenyl)-7-(isopropylcarbamoyl)quinazolin-4-yl)piperazine-1-carboxylate] | > 1000 | − (− indicates ≦ 10−fold) | 
5 | CCOC(=O)N1CCN(c2nc(-c3ccccc3Cl)nc3cc(C(=O)NC)ccc23)CC1 [Example 321, Ethyl 4-(2-(2-chlorophenyl)-7-(methylcarbamoyl)quinazolin-4-yl)piperazine-1-carboxylate] | > 1000 | − (− indicates ≦ 10−fold) | 
6 | COC(=O)c1ccc2c(N3CCN(C(C)=O)CC3)nc(-c3ccccc3Cl)nc2c1 [Example 322, Methyl 4-(4-acetylpiperazin-1-yl)-2-(2-chlorophenyl)quinazoline-7-carboxylate] |  | − (− indicates ≦ 10−fold) | > 1000
7 | CCN(CC)C(=O)c1ccc2c(N3CCN(C(C)=O)CC3)nc(-c3ccccc3Cl)nc2c1 [Example 323, 4-(4-Acetylpiperazin-1-yl)-2-(2-chlorophenyl)-N,N-diethylquinazoline-7-carboxamide] | > 1000 | − (− indicates ≦ 10−fold) | 
8 | CC(=O)N1CCN(c2nc(-c3ccccc3Cl)nc3cc(C(=O)N4CCCCC4)ccc23)CC1 [Example 324, 1-(4-(2-(2-Chlorophenyl)-7-(piperidine-1-carbonyl)quinazolin-4-yl)piperazin-1-yl)ethanone] | > 1000 | − (− indicates ≦ 10−fold) | 
9 | COc1ccc(CNC(=O)c2ccc3c(N4CCN(C(C)=O)CC4)nc(-c4ccccc4Cl)nc3c2)cc1 [Example 325, 4-(4-Acetylpiperazin-1-yl)-2-(2-chlorophenyl)-N-(4-methoxybenzyl)quinazoline-7-carboxamide] | > 1000 | − (− indicates ≦ 10−fold) | 
10 | COC(=O)c1ccc2nc(-c3ccccc3Cl)nc(Nc3cccc(OC(F)(F)F)c3)c2c1 [Example 326, Methyl 2-(2-chlorophenyl)-4-(3-(trifluoromethoxy)phenylamino)quinazoline-6-carboxylate] | > 1000 | − (− indicates ≦ 10−fold) | 
11 | COC(=O)c1ccc2nc(-c3ccccc3Cl)nc(Nc3cccc(OC(C)C)c3)c2c1 [Example 327, Methyl 2-(2-chlorophenyl)-4-(3-isopropoxyphenylamino)quinazoline-6-carboxylate] | > 1000 | − (− indicates ≦ 10−fold) | 
12 | COC(=O)c1ccc2nc(-c3ccccc3Cl)nc(Nc3cc(OC)cc(OC)c3)c2c1 [Example 328, Methyl 2-(2-chlorophenyl)-4-(3,5-dimethoxyphenylamino)quinazoline-6-carboxylate] | > 1000 | − (− indicates ≦ 10−fold) | 
13 | COC(=O)c1ccc2nc(-c3ccccc3Cl)nc(N3CCc4cc(OC)ccc43)c2c1 [Example 330, Methyl 2-(2-chlorophenyl)-4-(5-methoxyindolin-1-yl)quinazoline-6-carboxylate] | > 1000 | − (− indicates ≦ 10−fold) | 
14 | Cc1ccccc1Nc1nc(-c2ccccc2Cl)nc2ccccc12 [Example 331, 2-(2-Chlorophenyl)-N-o-tolylquinazolin-4-amine] | > 1000 | − (− indicates ≦ 10−fold) | 
15 | CCOc1ccc(Nc2nc(-c3ccccc3Cl)nc3ccccc23)cc1 [Example 332, 2-(2-Chlorophenyl)-N-(4-ethoxyphenyl)quinazolin-4-amine] | > 1000 | − (− indicates ≦ 10−fold) | 
16 | CN1CCCN(c2nc(-c3ccccc3Cl)nc3ccccc23)CC1 [Example 333, 2-(2-Chlorophenyl)-4-(4-methyl-1,4-diazepan-1-yl)quinazoline] | < 1000 | − (− indicates ≦ 10−fold) | 
17 | CC(=O)N1CCCN(c2nc(-c3ccccc3Cl)nc3ccccc23)CC1 [Example 334, 1-(4-(2-(2-Chlorophenyl)quinazolin-4-yl)-1,4-diazepan-1-yl)ethanone] | < 1000 | − (− indicates ≦ 10−fold) | 
18 | COc1ccc(Cc2nc(N3CCCCC3)c3ccccc3n2)cc1OC [Example 335, 2-(3,4-Dimethoxybenzyl)-4-(piperidin-1-yl)quinazoline] | > 1000 | − (− indicates ≦ 10−fold) | 
19 | COc1ccc(Cc2nc(N3CCCCC3)c3ccccc3n2)cc1 [Example 336, 2-(4-Methoxybenzyl)-4-(piperidin-1-yl)quinazoline] | > 1000 | + (+ indicates > 10−fold) | 
20 | Cc1ccccc1Cc1nc(N2CCN(C)CC2)c2ccccc2n1 [Example 337, 2-(2-Methylbenzyl)-4-(4-methylpiperazin-1-yl)quinazoline] | < 1000 | − (− indicates ≦ 10−fold) | 
21 | CCOC(=O)N1CCN(c2nc(C(C)c3ccccc3C)nc3ccccc23)CC1 (centres unmarked) [Example 338, Ethyl 4-(2-(1-o-tolylethyl)quinazolin-4-yl)piperazine-1-carboxylate] | > 1000 | + (+ indicates > 10−fold) | 
22 | c1ccc(Cc2nc(N3CCCCC3)c3ccccc3n2)cc1 [Example 339, 2-Benzyl-4-(piperidin-1-yl)quinazoline] | > 1000 | − (− indicates ≦ 10−fold) | 
23 | CCOC(=O)N1CCN(c2nc(Cc3ccccc3C)nc3ccccc23)CC1 [Example 340, Ethyl 4-(2-(2-methylbenzyl)quinazolin-4-yl)piperazine-1-carboxylate] | > 1000 | + (+ indicates > 10−fold) | 
24 | Cc1ccccc1Cc1nc(N2CCCC2)c2ccccc2n1 [Example 341, 2-(2-Methylbenzyl)-4-(pyrrolidin-1-yl)quinazoline] | < 1000 | − (− indicates ≦ 10−fold) | 
25 | Cc1ccccc1C(C)c1nc(N2CCCC2)c2ccccc2n1 (centres unmarked) [Example 342, 4-(Pyrrolidin-1-yl)-2-(1-o-tolylethyl)quinazoline] | > 1000 | − (− indicates ≦ 10−fold) | 
26 | CCOC(=O)N1CCN(c2nc(-c3ccccc3Cl)nc3ccc([N+](=O)[O-])cc23)CC1 [Example 343, Ethyl 4-(2-(2-chlorophenyl)-6-nitroquinazolin-4-yl)piperazine-1-carboxylate] | > 1000 | − (− indicates ≦ 10−fold) | 
27 | CC(=O)N1CCN(c2nc(C(C)c3ccccc3C)nc3ccccc23)CC1 (centres unmarked) [Example 344, 1-(4-(2-(1-o-Tolylethyl)quinazolin-4-yl)piperazin-1-yl)ethanone] | < 1000 | + (+ indicates > 10−fold) | 
28 | CCOC(=O)N1CCN(c2nc(Cc3cccc4ccccc34)nc3ccccc23)CC1 [Example 345, Ethyl 4-(2-(naphthalen-1-ylmethyl)quinazolin-4-yl)piperazine-1-carboxylate] | < 1000 | + (+ indicates > 10−fold) | 
